# Like-named read-outs stand apart in the source and are kept apart here.
# Legend:
# [1] = Phase 1 crossover drug-drug interaction study, plasma pharmacokinetics in healthy adults; settings: for time of peak of mean plasma concentration / pre-dose mean plasma concentration: Treatment B; for time of peak of mean plasma concentration: Day 5, in combination with bedaquiline; for pre-dose mean plasma concentration: Day 5 morning
# [2] = clinical; settings: human, in vivo
# [3] = human; cited from earlier work
# [4] = test system: M. kansasii; settings: n=1; cited from earlier work
# [5] = updated model from the present study; clarithromycin coadministration
# [6] = test system: other mycobacterial species; settings: generally, other mycobacterial species incl. M. avium, M. abscessus, M. fortuitum, M. marinum; cited from earlier work
# [7] = test system: M. abscessus; settings: cited from earlier work
# [8] = test system: M. bovis; settings: n=1; cited from earlier work
# [9] = in vivo; cited from earlier work
# [10] = test system: M. marinum; settings: n=1; cited from earlier work
# [11] = test system: M. avium/M. intracellulare (MAC); settings: n=7; cited from earlier work
# [12] = human, in vivo
# [13] = test system: M. smegmatis; settings: n=7; cited from earlier work
# [14] = test system: M. ulcerans; settings: cited from earlier work
# [15] = in vivo; cited from earlier work; remark: listed apart in the source
# [16] = test system: M. fortuitum; settings: n=5; cited from earlier work
# [17] = 8-week bedaquiline regimen in MDR-TB patients, Diacon et al. 2012; cited from earlier work
# [18] = Treatment B Day 5: bedaquiline 100 mg + clarithromycin 500 mg every 12 hours, n=16
structure (smiles),measurement,setting,value
"CC[C@H]1OC(=O)[C@H](C)[C@@H](O[C@H]2C[C@@](C)(OC)[C@@H](O)[C@H](C)O2)[C@H](C)[C@@H](O[C@@H]2O[C@H](C)C[C@H](N(C)C)[C@H]2O)[C@](C)(OC)C[C@@H](C)C(=O)[C@H](C)[C@@H](O)[C@]1(C)O [Clarithromycin, clarithromycin, reference compound]",time of peak of mean plasma concentration,[1],3 hours post-dose
same,pre-dose mean plasma concentration,[1],"1,281 ng/mL"
same,AUC(0-t),"[1]; human, plasma, oral, AUC12 h (mean), Treatment B Day 5: bedaquiline 100 mg + clarithromycin 500 mg every 12 hours, n=16",22900 ng·h/mL
same,Cmax,"[1]; human, plasma, oral, Cmax (mean), Treatment B Day 5: bedaquiline 100 mg + clarithromycin 500 mg every 12 hours, n=16",2970 ng/mL
same,Tmax,"[1]; human, plasma, oral, tmax (median), Treatment B Day 5: bedaquiline 100 mg + clarithromycin 500 mg every 12 hours, n=16",3 h
"COc1nc2ccc(Br)cc2cc1[C@@H](c1ccccc1)[C@@](O)(CCN(C)C)c1cccc2ccccc12 [Bedaquiline, (1R,2S)-1-(6-bromo-2-methoxyquinolin-3-yl)-4-(dimethylamino)-2-naphthalen-1-yl-1-phenylbutan-2-ol]",Cmax,"[2]; 100 mg, Cmax (mean)",1390 ng/mL
same,AUC(0-t),[2]; AUC72 h (mean),13900 ng·h/mL
same,AUC(0-t),[2]; AUC240 h (mean),17600 ng·h/mL
same,Tmax,[2]; tmax (median),5 h
same,"Increase in CL for healthy volunteers or C202, Estimate",[3],37.5%
same,Bedaquiline MIC Median,[4],3 ng/mL
same,"Effect CLR on CL/F, Estimate (RSE, %)",[5],−0.37 (11)
same,MICs,[6],< 0.1 µg/mL
same,MIC,[7]; 1 isolate of M. abscessus,250 ng/mL
same,Bedaquiline MIC Median,[7]; n=1,250 ng/mL
same,Bedaquiline MIC Median,[8],3 ng/mL
same,improvement of bioavailability when administered with food,[9],approximately 2 fold
same,Bedaquiline MIC Median,[10],3 ng/mL
same,Bedaquiline MIC Median,[11],10 ng/mL
same,Bedaquiline MIC range,[11],7 to 10 ng/mL
same,AUC72h higher in Period 2 compared with Period 1,[12],5-6%
same,AUC240h higher in Period 2 compared with Period 1,[12],8-18%
same,increase of AUC72h with clarithromycin co-administration,[12],12%
same,increase of AUC240h (mean plasma exposure) with clarithromycin co-administration,[12],14%
same,plasma concentration quantifiable until,[12],240 hours post-dose
same,tmax (median),[12],3.48 h
same,Cmax (mean),[12]; 100 mg,1287 ng/mL
same,Bedaquiline MIC Median,[13],7 ng/mL
same,Bedaquiline MIC range,[13],3 to 100 ng/mL
same,MIC,[14]; 1 isolate of M ulcerans,500 ng/mL
same,Bedaquiline MIC Median,[14]; n=1,500 ng/mL
same,terminal elimination half-life,[15],5.5 months
same,time within which Cmax was reached after drug administration,[15],4 to 6 h
same,Bedaquiline MIC Median,[16],10 ng/mL
same,Bedaquiline MIC range,[16],7 to 10 ng/mL
CNCC[C@@](O)(c1cccc2ccccc12)[C@H](c1ccccc1)c1cc2cc(Br)ccc2nc1OC [M2],mean terminal elimination half-life,[17],159 days
"CO[C@]1(C)C[C@@H](C)C(=O)[C@H](C)[C@@H](O)[C@](C)(O)[C@@H](C(C)O)OC(=O)[C@H](C)[C@@H](O[C@H]2C[C@@](C)(OC)[C@@H](O)[C@H](C)O2)[C@H](C)[C@H]1O[C@@H]1O[C@H](C)C[C@H](N(C)C)[C@H]1O (stereo partly drawn) [14-OH-Clarithromycin, 14-OH-clarithromycin]",AUC12 h (mean),[1]; [18],10849 ng·h/mL
same,Cmax (mean),[1]; [18],"1,152 ng/mL"
same,Cmin (mean),[1]; [18],636 ng/mL
same,tmax (median),[1]; [18],2.00 h
same,time of peak of mean plasma concentration,[1],3 hours post-dose
same,pre-dose mean plasma concentration,[1],797 ng/mL
